Results reported in US20240317754A1 (priority 2020, published 2024).
Where two headings read alike, the source gives them in different places.

Key:
[1] = tested on: SARS-CoV-2 variant B.1.351; experiment: microbe, parasite or virus in culture; format: cell-based
[2] = tested on: SARS-CoV-2 variant B.1.617.2; experiment: microbe, parasite or virus in culture; format: cell-based
SARS-CoV-2 variants = experiment: microbe, parasite or virus in culture; format: cell-based
[3] = tested on: SARS-CoV-2 B.1.617.2 variants; settings: in vivo
[4] = Severe acute respiratory syndrome coronavirus 2, Vero C1008, 48 h

`CC(C)CC(=O)OC[C@H]1O[C@@](C#N)(c2ccc3c(N)ncnn23)[C@H](O)[C@@H]1O` [ATV017, ((2R,3S,4R,5R)-5-(4-aminopyrrolo[2,1-f][1,2,4]triazin-7-yl)-5-cyano-3,4-dihydroxytetrahydrofuran-2-yl)methyl 3-methylbutanoate] gave an IC50 [1, 4] of 2.85 µM and an IC50 [2, 4] of 0.428 µM.
In the case of `CCCC(=O)OC[C@H]1O[C@@](C#N)(c2ccc3c(N)ncnn23)[C@H](O)[C@@H]1O` [ATV009, ((2R,3S,4R,5R)-5-(4-aminopyrrolo[2,1-f][1,2,4]triazin-7-yl)-5-cyano-3,4-dihydroxytetrahydrofuran-2-yl)methyl butyrate], the IC50 [1, 4] is reported as 1.38 µM and the IC50 [2, 4] is reported as 0.492 µM.
With `N#C[C@@]1(c2ccc3c(N)ncnn23)O[C@H](COC(=O)C2CCCCC2)[C@@H](O)[C@H]1O` [ATV014, ((2R,3S,4R,5R)-5-(4-aminopyrrolo[2,1-f][1,2,4]triazin-7-yl)-5-cyano-3,4-dihydroxytetrahydrofuran-2-yl)methyl cyclohexanecarboxylate] the IC50 [1] was 0.248 µM, the IC50 [2] was 0.21 µM and the IC50 (SARS-CoV-2 variants; Severe acute respiratory syndrome coronavirus 2) was < 0.34 µM. The “anti-SARS-CoV-2 activity relative to GS-441524” value (SARS-CoV-2 variants; summary statement, in words) was “twice that of GS-441524”.
With `CC(C)C(=O)OC[C@H]1O[C@@](C#N)(c2ccc3c(N)ncnn23)[C@H](O)[C@@H]1O` [ATV006, ((2R,3S,4R,5R)-5-(4-aminopyrrolo[2,1-f][1,2,4]triazin-7-yl)-5-cyano-3,4-dihydroxytetrahydrofuran-2-yl)methyl isobutyrate] the IC50 [1, 4] was 1.13 µM, the IC50 [2, 4] was 0.349 µM and the “amount of viral genome (N gene) in lung tissue” value [3] was “significantly lower than that in the control group”. For the same compound, the “amount of viral subgenome (subgenomic N) in lung tissue” value [3] was “significantly lower than that in the control group”.
`CCCCCCCCC(=O)OC[C@H]1O[C@@](C#N)(c2ccc3c(N)ncnn23)[C@H](O)[C@@H]1O` [ATV010, ((2R,3S,4R,5R)-5-(4-aminopyrrolo[2,1-f][1,2,4]triazin-7-yl)-5-cyano-3,4-dihydroxytetrahydrofuran-2-yl)methyl nonanoate] gave an IC50 [1, 4] of 1 µM and an IC50 [2, 4] of 0.455 µM.
With `N#C[C@@]1(c2ccc3c(N)ncnn23)O[C@H](CO)[C@@H](O)[C@H]1O` [GS-441524, reference compound] the IC50 [1] was 1.78 µM and the IC50 [2] was 1.65 µM.
With `CC(C)(C)C(=O)OC[C@H]1O[C@@](C#N)(c2ccc3c(N)ncnn23)[C@H](O)[C@@H]1O` [ATV018, ((2R,3S,4R,5R)-5-(4-aminopyrrolo[2,1-f][1,2,4]triazin-7-yl)-5-cyano-3,4-dihydroxytetrahydrofuran-2-yl)methyl pivalate] the IC50 [1, 4] was 0.785 µM and the IC50 [2, 4] was 0.229 µM.
With `CCC(CC)C(=O)OC[C@H]1O[C@@](C#N)(c2ccc3c(N)ncnn23)[C@H](O)[C@@H]1O` [ATV011, ((2R,3S,4R,5R)-5-(4-aminopyrrolo[2,1-f][1,2,4]triazin-7-yl)-5-cyano-3,4-dihydroxytetrahydrofuran-2-yl)methyl 2-ethylbutanoate] the IC50 [1, 4] was 2.3 µM and the IC50 [2, 4] was 0.408 µM.
In the case of `N#C[C@@]1(c2ccc3c(N)ncnn23)O[C@H](COC(=O)c2ccccc2)[C@@H](O)[C@H]1O` [ATV013, ((2R,3S,4R,5R)-5-(4-aminopyrrolo[2,1-f][1,2,4]triazin-7-yl)-5-cyano-3,4-dihydroxytetrahydrofuran-2-yl)methyl benzoate], the IC50 [1, 4] is reported as 2.43 µM and the IC50 [2, 4] is reported as 0.965 µM.
